From patent US7262336B2 (priority 2000, dated 2007) come the findings set out here.

Holding throughout (type): in vivo, rat
Data set [1] has as its system Gαq mutant transgenic rats. Kind of data set: Food intake after RO 60-0175 in Gq transgenic rats vs wild-type littermates. The procedure:
(§1) In general, 10 male and 10 female heterozygotes of each line were compared with a similar number of wild-type littermate controls. Testing began at 7-8 weeks of age. Subjects were individually housed in hanging metal mesh cages with ad libitum access to food and water under a 12 h light/dark cycle. For Lines 76, 67, and 11 the subjects were maintained on powdered rodent chow for the duration of the study. Subjects from Lines 58 and 75 were adapted to powdered chow for the feeding studies and then maintained on that chow for the remainder of the study. Subjects were evaluated in a series of tests outlined below over a period of approximately 12 weeks.
Wild-type and transgenic rats were maintained on powdered chow in their home cages. Rats were fasted for 24 h prior to evaluation of food intake. Food intake was measured at 2, 4, and 24 h timepoints following ip injection of vehicle, 1, or 1.7 mg/kg RO 60-0175. Experimental sessions were generally conducted on Tues and Fri with 24 h fasts initiating on Mon and Thurs. […] 5-HT2C agonists decrease food intake via a Gαq modulated pathway. Studies using the selective 5-HT2C agonist RO 60-0175 were conducted to determine if 5-HT2C agonist activity was modified in transgenic rats.
To account for the baseline differences in food intake between wild-type and transgenic rats, the effects of RO 60-0175 were calculated as a percentage of the vehicle food intake. The effects of 1.7 mg/kg RO 60-0175 were greater in both males and females for transgenic heterozygotes for lines 75 and 67 (FIG. 7). The effects of 1.0 mg/kg RO 60-0175 were greater in males of line 67 as well (data not shown). […] There was no change in the effects of RO 60-0175 in rats from lines 58, 76, or 11.

Data set [2] relates to Gαq mutant transgenic rats. Kind of data set: Stimulant-induced locomotor activity (d-amphetamine, phencyclidine) in Gq transgenic rats. The procedure:
as §1
To complement the observations of motor activity obtained using the open field test, heterozygotes and wildtype littermate controls were evaluated for spontaneous locomotor activity using an automated data collection system and a more extended test period. Data in this test was collected in multiple time bins over the test period allowing for some assessment of both the exploratory activity level in a novel environment as well as the rate of habituation to that environment. Having habituated the subjects, a stimulant was administered to determine the responsiveness of these subjects to the stimulant using locomotor activity as a measure. In this study we used an indirect-acting dopamine agonist, d-amphetamine, and a NMDA excitatory amino acid antagonist, phencyclidine, to induce locomotion. The ability of d-amphetamine to increase motor activity is dependent on dopaminergic neurotransmission in the striatum, in particular the nucleus accumbens, but can be influenced by other neurotransmitters. The ability of phencyclidine to induce locomotor activity is dependent on changes in both dopamine and glutatmate neurotransmission (Adams and Moghaddam, J. Neurosci. 1998, 18:5545-54). The differences in locomotor activity observed under spontaneous and stimulant-induced conditions in heterozygotes vs. wildtype littermate controls are summarized in FIGS. 15 and 16.
Subjects were placed in activity monitors (Model RXYZCM16, Omnitech, Columbus, Ohio) equipped with infrared beams to detect movements on both the horizontal (16×16 in field) and vertical axes. The testing room was equipped with white noise. Following a 60 min habituation period during which activity was monitored for differences in spontaneous locomotor activity, each subject was treated with a dose of 1 mg/kg d-amphetamine ip and returned to the activity monitor. Activity induced by d-amphetamine was monitored for 2 h. On a separate occasion, these same subjects were placed in the activity monitors and allowed to habituate for 60 min. Following this re-habituation, each subject was treated with 10 mg/kg phencyclidine ip and monitored for activity for an additional 4 h. The doses of d-amphetamine and phencyclidine were selected based on other studies as doses that induce a hyperactive state in normal rats (see Adams and Moghaddam, supra; Krebs-Thomson et al., Fur. J. Pharmacol. 1998, 343:135-43). Data were analyzed using LSD following a 2-way ANOVA (transgene×time) with one repeated measure (time). Outcomes were determined significant at p<0.05.

Data set [3] deals with Gαq mutant transgenic rats. Nature of the data set: Pilocarpine-induced cholinergic signs and convulsions in Gq transgenic rats. Here is the method: Muscarinic cholinergic agonists produce a series of cholinergic signs (chromodacryrhea, salivation, diarrhea, hypoactivity, tremors, foaming, convulsions and death) at high doses via a Gαq modulated pathway. Studies were conducted with the muscarinic agonist pilocarpine to determine if muscarinic agonist activity was modified in the transgenic rats (FIG. 28). Studies were conducted with the muscarinic agonist pilocarpine to determine if muscarinic agonist activity was modified by acute lithium (FIG. 29 or chronic lithium (FIG. 30). Both acute and chronic lithium potentiated the cholinergic signs produced by pilocarpine.

Data set [4] concerns normal Sprague-Dawley rats. Kind of data set: DOI lethality in normal rats (separate experiments). As to conditions: doses as high as 30 mg/kg. Here is the method:
Higher doses of DOI (3-10 mg/kg) were required to produce similar effects in line 11 (data not shown).

Data set [5] relates to Gαq mutant transgenic rats. Kind of data set: DOI induced headshakes and lethality in Gq transgenic rats. As to conditions: for number of headshakes: 0.1 mg/kg. Here is the method:
as §1
Wild type and transgenic rats were injected ip with either vehicle or DOI (0.001, 0.01, 0.1, 1.0 mg/kg) and were then housed singly in clear Plexiglas chambers (10″×18″×8″) for observational studies. A trained observer counted the number of headshakes for each rat during 2 observation periods (0-30 min; 45-75 min).
Assessing the effect of the RGS insensitive Gαq mutant transgene on receptors coupled via Gαq to the IP3 pathway in transgenic rats was an interest. 5-HT2A agonists produce large increases in headshakes in rats via this pathway. DOI (−1[2,5-dimethoxy-4-iodophenyl]-2-aminopropane) is a 5-HT2A receptor agonist, which increases headshakes in rats, and it has been used to investigate this pathway (Wettstein et al., 1999). DOI administration was used herein to determine if 5-HT2A agonist activity was modified in transgenic rats; results are shown in FIG. 27.

For `C[C@H](N)Cn1ccc2cc(F)c(Cl)cc21` [RO 60-0175], the “effect on food intake as percentage of vehicle food intake, transgenic vs wild-type” value in data set [1] (1.0 mg/kg ip, line 75 females) was “greater in wildtype than in transgenic rats”. Moreover, the “effect on food intake as percentage of vehicle food intake, transgenic heterozygotes vs wild-type” value in data set [1] (1.0 mg/kg ip, males of line 67) is listed as “greater”; in data set [1] (1.7 mg/kg ip, males and females, lines 75 and 67) it was “greater”. Also, in data set [1] (Gαq mutant Transgenics, cell wraps: 2 of 5 lines ↑sensitivity to RO 60-0175), the “5-HT2C Agonist (RO60-0175) Inhibition of Food Intake” value was 2 of 5 lines. For the same compound, the “change in effect on food intake, transgenic vs wild-type” value in data set [1] (lines 58, 76, or 11) is listed as “no change”.

In the case of `C[C@H](N)Cc1ccccc1` [d-amph, d-amphetamine], the “amphetamine-induced locomotor activity, heterozygotes vs wildtype” value in data set [2] (1 mg/kg ip, males of Lines 58, 75, 67, 11 and females of Line 67, 76, 11, but not males of Line 76) is “reduced amphetamine-induced locomotor activity”. In addition, in data set [2] (Gαq mutant Transgenics, cell wraps: All lines ↓ hyperactivity), the “Indirect DA agonist (d-amph) Locomotor Activity” value is “All lines ↓”.

As for `CC[C@@H]1C(=O)OC[C@@H]1Cc1cncn1C` [Pilocarpine, pilocarpine], the “Muscarinic Agonist (Pilocarpine) Convulsions, Death” value in data set [3] (Gαq mutant Transgenics, cell wraps: 3 of 3 lines tested conv and death (10–30 mg/kg)) is on record as 3 of 3 lines tested conv. In addition, the “Muscarinic Agonist (Pilocarpine) Induction of cholinergic signs” value in data set [3] (Gαq mutant Transgenics, cell wraps: 3 of 3 lines tested ↑ cholinergic signs) is on record as 3 of 3 lines tested ↑. Further, the “sensitivity of the transgenic rats to the muscarinic agonist” value in data set [3] (transgenic rats) is reported as “increased sensitivity”.

Consider `c1ccc(C2(N3CCCCC3)CCCCC2)cc1` [PCP, phencyclidine], for which the “locomotor activity induced by phencyclidine, heterozygotes vs wildtype” value in data set [2] (10 mg/kg ip, Line 58 males, delayed in the onset) is given as “increase in locomotor activity”; in data set [2] (10 mg/kg ip, Line 76 females, Line 11 males and females, to a lesser degree Line 67 females), “delayed hyperactivity”. Also, in data set [2] (10 mg/kg ip, Line 67 males), the “phencyclidine locomotor activity, heterozygotes vs wildtype” value is on record as “reduced”. Also, the “phencyclidine-induced activity, heterozygotes vs wildtype” value in data set [2] (10 mg/kg ip, Line 76 male (p=0.07)) is reported as “slight trend toward a similar reduction”. Moreover, in data set [2] (Gαq mutant Transgenics, cell wraps: 4 of 5 lines ↑ hyperactivity (delayed)), the “Noncompetitive NMDA antagonist (PCP) Locomotor Activity” value was 4 of 5 lines ↑.

In the case of `COc1cc(CC(C)N)c(OC)cc1I` (stereo not shown) [DOI, −1[2,5-dimethoxy-4-iodophenyl]-2-aminopropane], the lethality result is reported as “did not result in lethality” in data set [4]; “found dead within 24 hours” in data set [5] (1 mg/kg, transgenic rats from lines 58, 75, 67 and 76). The number of headshakes result was “trend toward increased headshakes” in data set [5] (line 67 male transgenic heterozygote rats) and “increased” in data set [5] (line 75 male transgenic heterozygote rats). The “5-HT2A Agonist (DOI) Induction of Head Shakes” value in data set [5] (Gαq mutant Transgenics, cell wraps: 4 of 5 lines ↓ headshakes) is recorded as 4 of 5 lines ↓. Also, the “5-HT2A Agonist (DOI) Flattened Body Posture, Convulsions, Death” value in data set [5] (Gαq mutant Transgenics, cell wraps: FBP, conv and death at 1.0 mg/kg, higher doses required for line 11) was 4 of 5 lines show FBP,. The “doses required to produce similar effects (lethality)” value in data set [5] (transgenic line 11) was in the range of 3 to 10 mg/kg.
